The subject of experiment [1] is EPO gene. The experiment can be described thus: Cell-based luciferase reporter assay, pEPO HRE-Luc in HeLa cells. Conditions: Homo sapiens, compound 100 μM, 24 hrs, read-out: EPO fold induction over control. From the text: (§1) A luciferase assay was used to determine the changes in transcription amount of EPO and VEGF genes in cells. For the luciferase assay, a human HIF I a gene was first cloned into an animal cell expression vector, pFlag-CMV, to prepare a pFlag-HIF1α vector, and a hypoxia responsible element (HRE) sequence of an EPO gene 3′-enhancer domain was then cloned upstream of luciferase and TK promoter genes to prepare a pEPO HRE-Luc expression vector. Also, the promoter and luciferase domains of the VEGF gene were cloned into a pGL3-basic vector to prepare a pVEGF-Luc expression vector. HeLa cells were seed-cultured in a medium dish to grow to about 70-80% density one day before the HeLa cells were to be used. The HeLa cells were transfected with each of the prepared pEPO HRE-Luc and pVEGF-Luc expression vectors together with the pFlag-HIF1α and the Renilla luciferase expression vector (Promega, Madison, Wis., USA), by using LipofectAMINE PLUS™ (Invitrogen Life Technologies, Carlsbad Calif.). Three hours after the transfection, the medium was exchanged with DMEM, 1% Penicillin-Streptomycin in 10% FBS supplemented with serum. At this time, cultured cells were treated with each of the compounds at the concentrations indicated. Then, the cells were cultured for 24 hrs in an incubator that was maintained under conditions of 37° C., 20% O2 and 5% CO2. After culturing, cells were washed twice with cold phosphate buffer saline (PBS). Luciferase activity of the cells was measured using the dual luciferase assay system (Promega, Madison, Wis., USA).

Experiment [2] relates to VEGF gene. Kind of experiment: Cell-based luciferase reporter assay, pVEGF-Luc in HeLa cells. Conditions: Homo sapiens, compound 100 μM, 24 hrs, read-out: VEGF 1 fold induction over control.
Text: as §1

In experiment [3] the test system is EPO. The experiment can be described thus: Human EPO immunoassay (ELISA of Hep3B culture media). It is filed as cell-based. Particulars: Hep3B cells, compound at 100 μM, 24-hour incubation; for EPO (mIU/ml): culture media ELISA; for fold induction at 100 µM: Homo sapiens, read-out: Fold Induction over control (EPO Induction). The method, then:
Human cells derived from hepatocarcinoma (Hep3B) tissue (see, e.g., American Type Culture Collection, Manassas Va.) were grown at 37° C., 20% O2, 5% CO2 in DMEM (GIBCO)+10% FBS, 4.5 g/L D-Glucose; L-Glutamate and 110 mg/L sodium pyruvate. Ninety-six well plates were seeded with 4×10^4 HEP3B cells/well. The media was removed and replaced with DMEM+10% FBS. Compounds were added to wells at concentrations between 1 μM-100 μM for a 24-hour incubation. Cell culture media was harvested and EPO concentration was determined using a Human Erythropoietin Quantikine IVD ELISA Kit (R&D Systems®, Minneapolis, Minn.) following the manufacturer's instructions for the benchtop assay.

The target in experiment [4] is T1, HIF-PH2 (EGLN1) (Homo sapiens, UniProt Q9GZT9).
T1 construct: made in house; host or cells: E. coli
T1 sequence (Q9GZT9 whole entry, species assumed): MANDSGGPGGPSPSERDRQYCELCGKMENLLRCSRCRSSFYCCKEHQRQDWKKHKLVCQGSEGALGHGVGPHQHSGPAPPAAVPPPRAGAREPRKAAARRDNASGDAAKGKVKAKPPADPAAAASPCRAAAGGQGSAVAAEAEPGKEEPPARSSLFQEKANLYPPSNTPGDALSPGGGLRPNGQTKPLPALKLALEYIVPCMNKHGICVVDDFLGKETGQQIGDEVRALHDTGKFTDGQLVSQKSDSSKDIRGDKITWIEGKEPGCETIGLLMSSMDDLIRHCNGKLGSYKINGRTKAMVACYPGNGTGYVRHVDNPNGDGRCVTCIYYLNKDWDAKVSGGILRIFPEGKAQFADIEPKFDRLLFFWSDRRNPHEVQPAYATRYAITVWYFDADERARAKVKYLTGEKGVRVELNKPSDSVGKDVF
The experiment can be described thus: HIF-PH2 (PHD2) assay (fluorescence polarization method). The class given is biochemical. Conditions: 200 nM HIF PH2 enzyme, 50 nM peptide substrate, 30° C. one hour; read-out: IC50 (HIF PH2 inhibition activity). The method, then: HIF-PH2 (EGLN1) was expressed from E. coli cells, and purified using two process: an Ni-affinity chromatography column and a size-exclusion chromatography column.
To evaluate activities of an HIF PH2 inhibitor, HIF PH2 enzyme that was first overexpressed by genetic recombination and then purified was used to perform an enzyme reaction. […] At this time, 2 mM ascorbic acid and 5 mM ketoglutarate with 100 μM FeCl2 or without FeCl2, were used together with crude enzyme. A concentration of HIF PH2 inhibitor to be tested was treated and reacted at 30° C. for one hour. After the reaction, the resulting reaction product was boiled at 95° C. for one minute to suppress the enzyme reaction.
To determine whether prolyl hydroxylation occurs in the substrate as the secondary reaction, 500 nM GST-VBC (GST-VHL-Elongin B-Elongin C) protein was added to a reaction buffer (50 mM Tris-Cl (pH8.0), 120 mM NaCl, 0.5% Nonidet P40), and a GST-VBC binding reaction was carried out at room temperature for 30 minutes.
A fluorescence polarization value of a sample that is not treated with the HIF PH2 inhibitor was used as 100% control, and the activities of the HIF PH2 inhibitor were measured as percentage of the remaining HIF PH2 enzyme activity in samples treated with a concentration of the HIF PH2 inhibitor to be tested.

Structures are written as SMILES.

Consider `O=C(O)CNC(=O)c1nc(Cl)c2c(sc3c(F)cccc32)c1O` [[(1-Chloro-6-fluoro-4-hydroxy-benzo[4,5]thieno[3,2-c]pyridine-3-carbonyl)-amino]-acetic acid], for which the fold induction at 100 µM in experiment [1] was 2.1 to 4; in experiment [2] it was 2.1 to 4; in experiment [3], under 20. For the same compound, in experiment [3], the “EPO (mIU/ml)” value is listed as “I (I = 0-20 mIU/ml)”. Moreover, the IC50 in experiment [4] was under 25 µM.
Regarding `O=C(O)CNC(=O)c1nc(Cl)c2c(sc3cc(F)ccc32)c1O` [[(1-Chloro-7-fluoro-4-hydroxy-benzo[4,5]thieno[3,2-c]pyridine-3-carbonyl)-amino]-acetic acid], the fold induction at 100 µM in experiment [1] is over 4.1; in experiment [2] it was over 4.1; in experiment [3], 51 to 70. Moreover, the “EPO (mIU/ml)” value in experiment [3] is “K (K = 41-60 mIU/ml)”. Moreover, in experiment [4], the IC50 is under 25 µM.
`O=C(O)CNC(=O)c1nc(Cl)c2c(sc3ccc(F)cc32)c1O` [[(1-Chloro-8-fluoro-4-hydroxy-benzo[4,5]thieno[3,2-c]pyridine-3-carbonyl)-amino]-acetic acid]: the fold induction at 100 µM in experiment [1] was over 4.1; in experiment [2], 2.1 to 4; in experiment [3] it was 21 to 50. In addition, in experiment [3], the “EPO (mIU/ml)” value is on record as “J (J = 21-40 mIU/ml)”. Further, the IC50 in experiment [4] was under 25 µM.

The record behind these values is patent US20110028507A1, “PYRIDINE DERIVATIVES AND METHODS OF USE THEREOF” (CRYSTALGENOMICS, INC., priority 2007, published 2011).
